Measured values taken from patent publication US12447159B2 (AELIS FARMA, priority 2018, dated 2025).
Read-outs that look alike come from different tables or passages of the source.

What was measured:
CYP 2B6 = CYP 2B6 (Homo sapiens, UniProt P20813); experiment: CYP inhibition in human liver microsomes; settings: 10 μM
From the text: Reaction was initiated by adding NADPH-generating compounds and after stopping of reaction and samples treatment; HPLC-UV/VIS and HPLC-MS/MS detection were used for detection of peak areas corresponding to the metabolite of each substrate.

UGT1A1 = UGT1A1 (Homo sapiens, UniProt P22309); experiment: UGT1A1 inhibition (recombinant, scopoletin substrate) assay; format: in vitro ADME; settings: 10 μM
Protocol: The reaction is initiated by adding the co-factor uridine-diphosphoglucuronic acid (UDPGA), the incubation is continued for 60 minutes and relative fluorescence intensity (RFI) is measured on a fluorescent plate reader.

[1] = Distribution in the brain of rats; format: in vivo; settings: rat, oral, 1.6 mg/kg, per os
Protocol: Distribution of 3pMBP in the brain was studied in mice and rats. In dogs, 3pMBP was also administered intravenously after solubilisation in cyclodextrine.

THC-induced catalepsy = THC-induced catalepsy (catalepsy bar test); format: in vivo; settings: per os 3 h before THC 10 mg/kg; mice
Protocol: Measuring of the catalepsy induced by THC was started 30 min after THC injection.
Catalepsy was measured by the catalepsy bar test. The forepaws of mice were placed on a bar fixed horizontally at 3.5 cm from the bench surface. The latency for moving from the bar was recorded with a cut-off time fixed at 420 s (7 min). Each mouse was submitted to a maximum of four consecutive trials. The maximum latency shown at one trial was selected as the measure of catalepsy.

CYP1A2 = experiment: CYP induction (mRNA level); format: in vitro ADME; settings: 10 nM, 100 nM and 1 μM
[2] = system: THC-induced increase in food intake; experiment: THC-induced increase in food intake (fasting-refeeding model); format: in vivo; settings: mice
Protocol: The effects of THC on food intake were studied using the fasting-refeeding model (Bellochio et al., 2010) in CB1^f/f male mice. […] Food intake was measured for one hour. Independent groups of animals (at least n=8 per group) were used for each treatment condition.

in vitro = in vitro ADME, monkeys; settings: monkey
[3] = system: human chromosome aberration; experiment: Human Chromosome Aberration test +/- metabolic activation (GLP); format: cell-based; settings: highest concentration tested between 74 and 100 μM
From the text: […].

P-gp = P-gp (Homo sapiens, UniProt P08183); experiment: Cellular transporter inhibition, MDR1-MDCKII cells (fluorometry); settings: 10 μM
Protocol: (§1) Chinese Hamster Ovary (CHO) were used for all transporters except for P-gp that was studied in Madin-Darby Canine Kidney (MDR1-MDCKII) cells. The inhibition of the activity of each transporter is evaluated by measuring changes in the transport of their specific substrates by fluorometry.

[4] = Pharmacokinetics in plasma of dogs (LC/MS-MS); format: in vivo; settings: for T1/2: manual linear regression on the last three points
[5] = Metabolic stability in dog liver microsomes (DLM); format: in vitro ADME; settings: dog LM, NADPH
Protocol: The investigation was performed on liver microsomes (LM) coming from mouse (MLM), rat (RLM), dog (DLM) and human (HLM).
3pMBP was incubated with liver microsome pools supplemented with NADPH as cofactor. Samples were taken at 5 different times (0, 10, 20, 30 and 60 minutes) and samples were monitored for parent compound disappearance in MRM mode using LC/MS-MS. The Intrinsic Clearance and half-life have been determined. Verapamil was used as reference compound.

conscious rats = experiment: Respiration in the unrestrained conscious rat (whole body plethysmography, GLP); settings: 2, 9 and 36 mg/kg, single oral
Protocol: The day prior to the study, animals were only allowed to drink water. On the study day, animals were placed in the plethysmograph and measurements started immediately afterwards. The whole body plethysmography method measure in a closed chamber variations in air flow due to thoracic cage movements during respiration and enables the measurement of respiratory parameters in the conscious animal, totally free to move about. […] Respiration was recorded for a total period of 6 hours following the dosing. Respiratory parameters were determined from analysis of respiratory cycles.

hERG current = target: T1, hERG current (Homo sapiens, UniProt Q12809); experiment: hERG tail current in stably transfected HEK-293 cells (GLP); format: cell-based; settings: 100 nM, 1 μM and 10 μM
T1 construct: expressed in transfected cells; host or cells: HEK-293
Protocol: E-4031 was used as positive control and was tested in one separate HEK-293 cell to support the validity of the method used.
Cells were clamped to −80 mV, depolarised to 0 mV for 5 sec allowing activation of hERG current and repolarised to −50 mV for 5 sec allowing hERG tail current to deactivate. This experimental procedure was repeated at a frequency of 0.06 Hz. Currents were filtered at 1 kHz and acquired at the frequency of 2 kHz. Amplitude of hERG tail current was measured during the repolarizing pulse from 0 to −50 mV. […] Currents were measured before and after exposure to the test item.

OAT1 = OAT1 (Homo sapiens, UniProt Q4U2R8); experiment: Cellular transporter inhibition, CHO cells (fluorometry); settings: 10 μM
Protocol: as §1

[6] = system: testosterone, DHEA and allopregnanolone; experiment: Conversion in downstream steroids, rats (GC/MS-MS); format: in vivo; settings: male and female rats; acute or repeated (28 days) 2, 9 and 36 mg/kg
Protocol: In all these studies plasma concentrations of steroids were measured by gas chromatography-tandem mass spectrometry (GC/MS-MS).

[7] = per os 3 h before THC 1 mg/kg ip

UGT1A1, sequence (P22309 26-533): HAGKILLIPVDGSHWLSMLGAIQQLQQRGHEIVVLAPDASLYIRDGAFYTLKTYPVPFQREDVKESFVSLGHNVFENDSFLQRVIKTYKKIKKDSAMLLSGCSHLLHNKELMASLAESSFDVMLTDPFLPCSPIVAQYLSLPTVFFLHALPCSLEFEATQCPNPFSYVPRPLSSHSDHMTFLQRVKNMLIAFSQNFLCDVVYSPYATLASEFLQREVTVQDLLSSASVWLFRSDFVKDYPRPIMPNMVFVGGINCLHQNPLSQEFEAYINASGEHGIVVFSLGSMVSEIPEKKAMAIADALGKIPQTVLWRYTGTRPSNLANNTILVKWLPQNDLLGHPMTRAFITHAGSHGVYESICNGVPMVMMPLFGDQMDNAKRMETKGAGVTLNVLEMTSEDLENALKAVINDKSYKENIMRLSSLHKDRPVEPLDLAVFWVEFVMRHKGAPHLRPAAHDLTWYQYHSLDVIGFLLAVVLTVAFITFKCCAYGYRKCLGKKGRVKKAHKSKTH
CYP 2B6, sequence (P20813 whole entry): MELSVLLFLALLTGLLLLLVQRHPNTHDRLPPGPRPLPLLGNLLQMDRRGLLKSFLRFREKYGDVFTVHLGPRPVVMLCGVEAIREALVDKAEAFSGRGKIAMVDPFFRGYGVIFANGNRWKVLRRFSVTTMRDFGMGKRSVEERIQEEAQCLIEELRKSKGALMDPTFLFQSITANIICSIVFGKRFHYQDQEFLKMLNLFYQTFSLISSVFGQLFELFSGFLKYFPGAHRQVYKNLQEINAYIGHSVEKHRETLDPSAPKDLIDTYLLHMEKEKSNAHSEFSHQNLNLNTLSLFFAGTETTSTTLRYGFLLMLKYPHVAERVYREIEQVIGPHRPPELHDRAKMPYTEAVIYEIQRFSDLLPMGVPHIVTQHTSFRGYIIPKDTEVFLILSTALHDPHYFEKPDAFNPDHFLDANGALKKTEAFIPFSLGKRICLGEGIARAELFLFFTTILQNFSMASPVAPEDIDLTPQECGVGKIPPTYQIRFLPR
P-gp, sequence (P08183 whole entry): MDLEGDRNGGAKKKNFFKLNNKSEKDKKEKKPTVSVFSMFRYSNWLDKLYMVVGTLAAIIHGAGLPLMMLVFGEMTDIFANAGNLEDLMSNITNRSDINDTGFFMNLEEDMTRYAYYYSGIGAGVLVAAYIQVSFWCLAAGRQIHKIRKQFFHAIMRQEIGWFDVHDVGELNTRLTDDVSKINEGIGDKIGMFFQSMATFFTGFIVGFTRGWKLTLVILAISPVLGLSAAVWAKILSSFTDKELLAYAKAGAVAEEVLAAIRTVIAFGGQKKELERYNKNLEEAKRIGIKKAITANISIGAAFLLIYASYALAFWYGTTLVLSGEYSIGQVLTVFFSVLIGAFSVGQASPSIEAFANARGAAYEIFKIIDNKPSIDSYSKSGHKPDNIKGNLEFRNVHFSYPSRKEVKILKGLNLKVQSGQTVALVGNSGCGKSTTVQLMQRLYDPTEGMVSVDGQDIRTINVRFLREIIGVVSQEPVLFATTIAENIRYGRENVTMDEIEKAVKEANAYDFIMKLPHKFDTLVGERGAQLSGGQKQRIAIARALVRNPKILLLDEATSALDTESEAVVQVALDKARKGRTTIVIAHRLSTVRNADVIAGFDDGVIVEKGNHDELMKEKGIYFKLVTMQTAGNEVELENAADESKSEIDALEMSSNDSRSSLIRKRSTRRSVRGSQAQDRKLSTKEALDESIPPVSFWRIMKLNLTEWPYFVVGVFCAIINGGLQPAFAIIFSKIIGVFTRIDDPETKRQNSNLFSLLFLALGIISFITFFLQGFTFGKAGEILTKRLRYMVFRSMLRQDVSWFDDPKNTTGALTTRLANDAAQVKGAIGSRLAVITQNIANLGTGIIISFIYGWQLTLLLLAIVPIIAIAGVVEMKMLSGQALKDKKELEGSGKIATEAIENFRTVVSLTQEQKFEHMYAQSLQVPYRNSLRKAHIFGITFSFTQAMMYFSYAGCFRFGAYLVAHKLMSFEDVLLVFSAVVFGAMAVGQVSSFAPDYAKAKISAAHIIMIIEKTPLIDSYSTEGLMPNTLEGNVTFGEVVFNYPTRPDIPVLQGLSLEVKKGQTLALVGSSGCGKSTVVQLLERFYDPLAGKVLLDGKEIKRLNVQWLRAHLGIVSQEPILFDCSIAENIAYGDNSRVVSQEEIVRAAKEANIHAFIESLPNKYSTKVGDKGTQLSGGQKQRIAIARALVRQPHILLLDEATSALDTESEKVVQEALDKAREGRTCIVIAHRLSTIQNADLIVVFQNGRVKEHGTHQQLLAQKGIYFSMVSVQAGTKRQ
OAT1, sequence (Q4U2R8 whole entry): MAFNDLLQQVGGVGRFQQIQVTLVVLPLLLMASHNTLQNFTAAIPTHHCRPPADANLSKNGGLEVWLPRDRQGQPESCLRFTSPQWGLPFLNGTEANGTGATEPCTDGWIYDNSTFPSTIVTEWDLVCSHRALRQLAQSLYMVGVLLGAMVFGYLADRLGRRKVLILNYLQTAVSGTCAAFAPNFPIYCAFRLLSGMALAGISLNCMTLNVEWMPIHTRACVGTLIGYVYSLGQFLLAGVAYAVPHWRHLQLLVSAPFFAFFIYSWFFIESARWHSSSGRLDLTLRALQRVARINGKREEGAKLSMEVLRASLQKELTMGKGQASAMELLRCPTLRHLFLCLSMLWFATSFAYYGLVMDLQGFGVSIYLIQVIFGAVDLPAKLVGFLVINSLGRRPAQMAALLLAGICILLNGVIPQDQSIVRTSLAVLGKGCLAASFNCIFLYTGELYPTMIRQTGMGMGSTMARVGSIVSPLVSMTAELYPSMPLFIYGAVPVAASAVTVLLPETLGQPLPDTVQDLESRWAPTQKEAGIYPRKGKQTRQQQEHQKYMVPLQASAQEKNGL
T1 sequence (Q12809 whole entry): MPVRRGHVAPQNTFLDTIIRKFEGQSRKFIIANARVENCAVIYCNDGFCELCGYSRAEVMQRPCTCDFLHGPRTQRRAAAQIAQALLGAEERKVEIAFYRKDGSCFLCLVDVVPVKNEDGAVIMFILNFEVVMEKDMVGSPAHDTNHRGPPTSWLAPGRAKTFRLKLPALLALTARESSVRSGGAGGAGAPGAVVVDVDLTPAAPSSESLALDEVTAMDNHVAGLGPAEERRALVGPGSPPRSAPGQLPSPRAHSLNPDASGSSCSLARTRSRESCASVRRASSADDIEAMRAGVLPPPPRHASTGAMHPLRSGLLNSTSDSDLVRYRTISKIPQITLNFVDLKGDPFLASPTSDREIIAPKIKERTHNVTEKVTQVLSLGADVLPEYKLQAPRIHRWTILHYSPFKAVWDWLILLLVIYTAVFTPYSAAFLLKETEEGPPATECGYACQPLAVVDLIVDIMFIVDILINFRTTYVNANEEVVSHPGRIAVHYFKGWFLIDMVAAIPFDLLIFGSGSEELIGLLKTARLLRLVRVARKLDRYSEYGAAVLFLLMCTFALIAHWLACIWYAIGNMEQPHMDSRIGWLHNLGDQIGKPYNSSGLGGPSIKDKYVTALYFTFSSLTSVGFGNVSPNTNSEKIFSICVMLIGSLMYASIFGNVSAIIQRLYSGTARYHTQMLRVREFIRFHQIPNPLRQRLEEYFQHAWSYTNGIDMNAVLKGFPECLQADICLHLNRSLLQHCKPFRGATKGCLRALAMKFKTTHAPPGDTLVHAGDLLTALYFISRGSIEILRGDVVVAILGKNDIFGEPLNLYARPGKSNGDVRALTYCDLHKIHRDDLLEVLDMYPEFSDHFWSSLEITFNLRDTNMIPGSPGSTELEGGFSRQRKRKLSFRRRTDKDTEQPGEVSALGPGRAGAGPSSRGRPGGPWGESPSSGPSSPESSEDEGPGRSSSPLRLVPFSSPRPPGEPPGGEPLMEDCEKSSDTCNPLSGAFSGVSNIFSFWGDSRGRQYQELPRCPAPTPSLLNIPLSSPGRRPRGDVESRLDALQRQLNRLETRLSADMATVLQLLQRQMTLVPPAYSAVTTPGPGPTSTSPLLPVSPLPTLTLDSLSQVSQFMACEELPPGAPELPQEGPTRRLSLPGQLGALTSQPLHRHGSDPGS

With `COc1ccc(CO[C@H]2CC[C@@]3(C)C(=CC[C@H]4[C@@H]5CC[C@H](C(C)=O)[C@@]5(C)CC[C@@H]43)C2)cc1` [3pMBP, 3β-(4-methoxybenzyloxy)pregn-5-en-20-one] the “Inhibition of CYP 2B6 activity” value (CYP 2B6) was “no significant inhibition”, the “Activity of UGT1A1” value (UGT1A1) was “did not modify the activity” and the Tmax [1] was 7 h. For the same compound, the “% inhibition” value (THC-induced catalepsy) was 50%, the ID50 (THC-induced catalepsy) was 0.005 mg/kg and the ID100 (THC-induced catalepsy) was 0.05 mg/kg. For the same compound, the “Expression of CYP1A2” value (CYP1A2) was “did not increase the expression”, the “% inhibition” value [2, 7] was 100% and the ID50 [2, 7] was 0.015 mg/kg. For the same compound, the ID100 [2, 7] was 0.05 mg/kg, the ID50 ([2]; per os, THC 1 mg/kg) was “≈ 15 μg/kg” and the ID100 ([2]; per os, THC 1 mg/kg) was “≈ 50 μg/kg”. The fraction unbound (in vitro) was 0.01 to 0.03, the Genotoxicity [3] was “did not show any cytotoxicity, genotoxicity and mutagenesis” and the “Activity of P-gp” value (P-gp) was “did not modify the activity”. It also gave a bioavailability [4] of 68%, a bioavailability ([4]; both sexes, dog, plasma, oral, 0.7 mg/kg, read-out: bioavailability) of ~68% and a Tmax ([4]; both sexes, dog, po, per os, 0.7 mg/kg, plasma, read-out: Tmax) of ~3 h. For the same compound, the AUClast ([4]; iv, 0.7 mg/kg, plasma) was 2192 ng·h/mL, the Cmax ([4]; iv, 0.7 mg/kg, plasma) was 505 ng/mL and the Tmax ([4]; iv, 0.7 mg/kg, plasma) was 0.125 h. It also gave a T1/2 ([4]; iv, 0.7 mg/kg, plasma) of 35.9 h, an AUClast ([4]; per os, 0.7 mg/kg, plasma) of 1452.5 ng·h/mL and a Cmax ([4]; per os, 0.7 mg/kg, plasma) of 137.7 ng/mL. It also gave a Tmax ([4]; per os, 0.7 mg/kg, plasma) of 2.67 h, a T1/2 ([4]; per os, 0.7 mg/kg, plasma) of 28.0 h and a half-life [5] of 0.89 h. For the same compound, the microsomal CLint ([5]; read-out: intrinsic clearance) was 26 µL/min/mg, the Respiration (conscious rats) was “did not modify” and the hERG tail currents (hERG current) was “did not modify hERG (human ether-ago-go-related gene) tail currents”. The “Activity of OAT1” value (OAT1) was “did not modify the activity” and the “Plasma concentrations of testosterone, DHEA and allopregnanolone” value [6] was “no effect”.
